In ChEMBL document CHEMBL5329195, “Identification of novel glucocerebrosidase chaperones by unexpected skeletal rearrangement reaction” (Bioorg Med Chem Lett, 2023):
Calls of active or inactive are those of the source. No cut-off for these calls is given here.

How the values were obtained:
[1] = test system: T1, Lysosomal acid glucosylceramidase (Homo sapiens), P04062 [N409S]; experiment: Chaperone activity at GCase N370S GBA mutant in patient derived fibroblast cells using 4-methylumbelliferyl-beta-D-glucopyranoside as substrate incubated for 5 days by fluorescence based analysis relative to control; format: cell-based; conditions: time 5.0 day
T1 sequence (whole entry): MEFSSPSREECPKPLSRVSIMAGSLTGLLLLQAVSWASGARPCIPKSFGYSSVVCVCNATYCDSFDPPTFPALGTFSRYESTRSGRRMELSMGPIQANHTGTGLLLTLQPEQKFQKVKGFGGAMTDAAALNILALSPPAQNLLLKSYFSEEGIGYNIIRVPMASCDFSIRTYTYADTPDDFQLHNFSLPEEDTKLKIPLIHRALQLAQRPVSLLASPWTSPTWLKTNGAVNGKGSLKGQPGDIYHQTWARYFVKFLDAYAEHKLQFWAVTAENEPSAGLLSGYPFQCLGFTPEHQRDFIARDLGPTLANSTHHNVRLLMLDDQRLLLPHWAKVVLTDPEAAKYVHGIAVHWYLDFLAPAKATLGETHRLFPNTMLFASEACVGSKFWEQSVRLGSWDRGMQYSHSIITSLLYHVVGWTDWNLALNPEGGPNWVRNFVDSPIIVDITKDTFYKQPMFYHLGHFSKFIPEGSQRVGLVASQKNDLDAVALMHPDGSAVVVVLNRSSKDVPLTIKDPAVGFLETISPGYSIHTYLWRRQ

[2] = test system: T1, Lysosomal acid glucosylceramidase (Homo sapiens), P04062 [N409S]; experiment: Inhibition of GCase N370S GBA mutant in patient derived fibroblast cells using 4-methylumbelliferyl-beta-D-glucopyranoside as substrate incubated for 5 days by fluorescence based analysis relative to control; format: cell-based; conditions: time 5.0 day
[3] = target: T2, Lysosomal acid glucosylceramidase (Homo sapiens, UniProt P04062, N409S); experiment: Chaperone activity at GCase N370S GBA mutant in patient derived fibroblast cells using 4-methylumbelliferyl-beta-D-glucopyranoside as substrate incubated for 5 days by fluorescence based analysis; format: cell-based
[4] = target: T2, Lysosomal acid glucosylceramidase; experiment: Inhibition of GCase N370S GBA mutant in patient derived fibroblast cells using 4-methylumbelliferyl-beta-D-glucopyranoside as substrate incubated for 5 days by fluorescence based analysis; format: cell-based
[5] = Stability of the compound in mouse liver microsomes assessed as intrinsic clearance; format: ADME, Microsome; conditions: read-out: CLH
[6] = target: Voltage-gated inwardly rectifying potassium channel KCNH2 (Homo sapiens, UniProt Q12809); experiment: Inhibition of human ERG; format: toxicity
Chain of Voltage-gated inwardly rectifying potassium channel KCNH2 (Q12809 whole entry): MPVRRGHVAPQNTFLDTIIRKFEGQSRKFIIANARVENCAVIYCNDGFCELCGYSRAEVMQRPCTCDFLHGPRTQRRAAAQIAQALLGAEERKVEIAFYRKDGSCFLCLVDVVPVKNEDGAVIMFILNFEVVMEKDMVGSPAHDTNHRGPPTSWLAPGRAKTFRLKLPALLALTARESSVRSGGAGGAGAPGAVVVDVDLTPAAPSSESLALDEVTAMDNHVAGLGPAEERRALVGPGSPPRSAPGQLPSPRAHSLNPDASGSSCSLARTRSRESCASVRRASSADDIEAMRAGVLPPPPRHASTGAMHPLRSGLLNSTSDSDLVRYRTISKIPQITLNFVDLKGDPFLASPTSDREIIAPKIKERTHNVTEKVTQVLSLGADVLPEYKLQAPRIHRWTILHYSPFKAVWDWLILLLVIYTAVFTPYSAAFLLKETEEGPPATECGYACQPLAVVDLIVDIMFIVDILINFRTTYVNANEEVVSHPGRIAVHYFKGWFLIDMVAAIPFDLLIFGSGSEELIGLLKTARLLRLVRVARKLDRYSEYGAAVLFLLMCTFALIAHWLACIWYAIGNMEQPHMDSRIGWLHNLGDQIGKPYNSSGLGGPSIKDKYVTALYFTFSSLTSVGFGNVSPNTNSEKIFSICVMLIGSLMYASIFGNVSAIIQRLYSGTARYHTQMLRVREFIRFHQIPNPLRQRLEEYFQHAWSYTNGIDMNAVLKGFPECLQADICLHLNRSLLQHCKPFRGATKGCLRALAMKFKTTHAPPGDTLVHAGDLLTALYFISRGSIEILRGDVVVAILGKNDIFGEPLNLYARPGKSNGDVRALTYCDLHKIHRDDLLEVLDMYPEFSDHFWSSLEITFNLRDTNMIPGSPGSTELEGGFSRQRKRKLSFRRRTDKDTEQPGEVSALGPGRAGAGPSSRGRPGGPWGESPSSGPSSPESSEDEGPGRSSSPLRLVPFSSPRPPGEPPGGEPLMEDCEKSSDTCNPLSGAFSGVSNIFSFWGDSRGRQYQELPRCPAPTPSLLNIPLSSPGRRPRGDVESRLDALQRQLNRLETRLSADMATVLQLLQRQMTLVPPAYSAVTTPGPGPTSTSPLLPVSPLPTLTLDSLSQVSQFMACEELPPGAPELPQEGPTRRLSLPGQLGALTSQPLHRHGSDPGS

[7] = Solubility of the compound at pH 7.4; format: physicochemical; conditions: buffer
[8] = Stability of the compound in human liver microsomes assessed as intrinsic clearance; format: ADME, Microsome; conditions: read-out: CLH
[9] = Solubility of the compound at pH 1.2; format: physicochemical; conditions: buffer
[10] = Stability of the compound in DMSO; format: physicochemical
[11] = Stability of the compound in JPI fluid at pH 1.2; format: physicochemical; conditions: buffer

| Structure (SMILES) | Emax [1] | EC50 ([3]; read-out: EC50) | other results |
| --- | --- | --- | --- |
| Cc1n[nH]c2c1[C@@H](O)[C@H](n1nnc3ccccc31)[C@@H](c1ccccc1Cl)N2 [listing 1 of 2 here] | 163% |  | Emax [2]: 85% |
| Cc1n[nH]c2c1[C@@H](O)[C@H](n1nnc3ccccc31)[C@@H](C1CCCCC1)N2 (racemic) | 180% | 370 nM | IC50 ([4]; read-out: IC50): 650 nM; Emax [2]: 102% |
| Cc1ccc([C@H]2Nc3[nH]nc(C)c3[C@@H](O)[C@@H]2n2nnc3ccccc32)cc1 (racemic) | 157% | 1100 nM |  |
| Cc1n[nH]c2c1[C@@H](O)[C@H](n1nnc3ccccc31)[C@@H](c1ccccc1)N2 [listing 1 of 2 here] | 137% |  | Emax [2]: 95% |
| Cc1n[nH]c2c1[C@@H](O)[C@H](n1nnc3ccccc31)[C@@H](c1ccc(Cl)cc1Cl)N2 (racemic) | 150% | 740 nM |  |
| Cc1n[nH]c2c1[C@H](O)[C@@H](n1nnc3ccccc31)[C@H](c1ccccc1Cl)N2 | inactive |  | EC50 ([3]; fibroblast): Not Active; IC50 ([4]; fibroblast): Not Active; Emax [2]: inactive |
| Cc1cccc([C@H]2Nc3[nH]nc(C)c3[C@@H](O)[C@@H]2n2nnc3ccccc32)c1 (racemic) | 158% | 1100 nM |  |
| O[C@@H]1c2c(C3CCCC3)n[nH]c2N[C@H](c2ccccc2)[C@H]1n1nnc2ccccc21 (racemic) | inactive |  | EC50 ([3]; fibroblast): Not Active |
| Cc1ccccc1[C@H]1Nc2[nH]nc(C)c2[C@@H](O)[C@@H]1n1nnc2ccccc21 (racemic) | 158% | 1900 nM | IC50 ([4]; read-out: IC50): 4600 nM; Emax [2]: 97% |
| Cc1cccc([C@H]2Nc3[nH]nc(C)c3[C@@H](O)[C@@H]2n2nnc3ccccc32)c1Cl (racemic) | 147% | 150 nM |  |
| Cc1n[nH]c2c1[C@H](O)[C@@H](n1nnc3ccccc31)[C@H](c1ccccc1)N2 | inactive |  | EC50 ([3]; fibroblast): Not Active; IC50 ([4]; fibroblast): Not Active; Emax [2]: inactive |
| Cc1n[nH]c2c1[C@@H](O)[C@H](n1nnc3ccccc31)[C@@H](c1ccccc1Cl)N2 [listing 2 of 2 here] |  | 76 nM | microsomal CLint [5]: 15.7 µL/min/mg; IC50 [6]: > 25000 nM; solubility [7]: > 100 µM; microsomal CLint [8]: 9.61 µL/min/mg; solubility [9]: > 100 µM; IC50 ([4]; read-out: IC50): 110 nM |
| Cc1n[nH]c2c1[C@@H](O)[C@H](n1nnc3ccccc31)[C@@H](c1ccccc1F)N2 (racemic) | 137% | 970 nM | IC50 ([4]; read-out: IC50): 1800 nM; Emax [2]: 103% |
| Cc1n[nH]c2c1[C@@H](O)[C@H](n1nnc3ccccc31)[C@@H](c1ccccc1)N2 (racemic) [listing 1 of 2 here] | 173% |  |  |
| Cc1n[nH]c2c1[C@@H](O)[C@H](n1nnc3ccccc31)[C@@H](c1cccc(Cl)c1Cl)N2 (racemic) | 140% | 140 nM |  |
| OC[C@H]1CNC[C@@H](O)[C@@H]1O | 103% |  | Emax [2]: 103% |
| COCc1n[nH]c2c1[C@@H](O)[C@H](n1nnc3ccccc31)[C@@H](c1ccccc1)N2 (racemic) | inactive |  | EC50 ([3]; fibroblast): Not Active |
| Cc1n[nH]c2c1[C@@H](O)[C@H](n1nnc3ccccc31)[C@@H](c1ccccc1)N2 (racemic) [listing 2 of 2 here] |  | 1400 nM |  |
| Cc1n[nH]c2c1[C@@H](O)[C@H](n1nnc3ccccc31)[C@@H](c1cc(Cl)ccc1Cl)N2 (racemic) | 145% | 720 nM |  |
| O[C@@H]1c2cnccc2N[C@H](c2ccccc2Cl)[C@H]1n1nnc2ccccc21 (racemic) | > 239% | > 16000 nM |  |
| Cc1n[nH]c2c1[C@@H](O)[C@H](n1nnc3ccccc31)[C@@H](c1ccccc1Cl)N2 (racemic) [listing 1 of 2 here] | 160% |  |  |
| O[C@@H]1c2c(-c3ccccc3)n[nH]c2N[C@H](c2ccccc2Cl)[C@H]1n1nnc2ccccc21 (racemic) | inactive |  | EC50 ([3]; fibroblast): Not Active |
| Cc1n[nH]c2c1[C@H](O)[C@@H](n1nnc3ccccc31)[C@H](c1ccccc1Br)N2 | inactive |  | EC50 ([3]; fibroblast): Not Active |
| O[C@@H]1c2ccncc2N[C@H](c2ccccc2Cl)[C@H]1n1nnc2ccccc21 (racemic) | 151% | 570 nM | IC50 ([4]; read-out: IC50): 1800 nM; Emax [2]: 99% |
| CCc1n[nH]c2c1[C@@H](O)[C@H](n1nnc3ccccc31)[C@@H](c1ccccc1Cl)N2 (racemic) | 191% | 480 nM |  |
| Cc1n[nH]c2c1[C@@H](O)[C@H](n1nnc3ccccc31)[C@@H](C1CC1)N2 (racemic) | inactive |  | EC50 ([3]; fibroblast): Not Active |
| COc1ccccc1[C@H]1Nc2[nH]nc(C)c2[C@@H](O)[C@@H]1n1nnc2ccccc21 (racemic) | 145% | 3300 nM |  |
| Cc1n[nH]c2c1[C@@H](O)[C@H](n1nnc3ccccc31)[C@@H](C1CCOCC1)N2 (racemic) | > 65% | > 16000 nM |  |
| Cc1n[nH]c2c1[C@@H](O)[C@H](n1nnc3ccccc31)[C@@H](c1ccccc1)N2 [listing 2 of 2 here] |  | 1100 nM | microsomal CLint [5]: 9.88 µL/min/mg; solubility [7]: > 100 µM; microsomal CLint [8]: 5.01 µL/min/mg; solubility [9]: > 100 µM; IC50 ([4]; read-out: IC50): 3200 nM |

More lines, main results first:

| Emax [1] | EC50 ([3]; read-out: EC50) | Structure (SMILES) | other results |
| --- | --- | --- | --- |
| 170% |  | Cc1n[nH]c2c1[C@@H](O)[C@H](n1nnc3ccccc31)[C@@H](c1ccccc1Br)N2 [listing 1 of 2 here] | Emax [2]: 101% |
|  | 200 nM | Cc1n[nH]c2c1[C@@H](O)[C@H](n1nnc3ccccc31)[C@@H](c1ccccc1Br)N2 (racemic) [listing 1 of 2 here] |  |
| 172% | 83 nM | O[C@@H]1c2c(C3CC3)n[nH]c2N[C@H](c2ccccc2Cl)[C@H]1n1nnc2ccccc21 (racemic) | IC50 ([4]; read-out: IC50): 74 nM; Emax [2]: 95% |
| inactive |  | Cc1n[nH]c2c1[C@@H](O)[C@H](n1nnc3ccccc31)[C@@H](C)N2 (racemic) | EC50 ([3]; fibroblast): Not Active |
| 148% | 110 nM | Cc1n[nH]c2c1[C@@H](O)[C@H](n1nnc3ccccc31)[C@@H](c1cccc(F)c1Cl)N2 (racemic) |  |
|  | 5600 nM | Cc1cc2n(n1)C(O)[C@H](n1nnc3ccccc31)[C@@H](c1ccccc1)N2 (some centres not stated) | Stability [10]: Stable; Stability [11]: Stable |
|  | 86 nM | Cc1n[nH]c2c1[C@@H](O)[C@H](n1nnc3ccccc31)[C@@H](c1ccccc1Br)N2 [listing 2 of 2 here] | microsomal CLint [5]: 31.4 µL/min/mg; IC50 [6]: > 25000 nM; solubility [7]: > 100 µM; microsomal CLint [8]: 22.7 µL/min/mg; solubility [9]: > 100 µM; IC50 ([4]; read-out: IC50): 330 nM |
| 164% |  | Cc1n[nH]c2c1[C@@H](O)[C@H](n1nnc3ccccc31)[C@@H](c1ccccc1Br)N2 (racemic) [listing 2 of 2 here] |  |
| 132% | 7400 nM | CC(C)(C)c1n[nH]c2c1[C@@H](O)[C@H](n1nnc3ccccc31)[C@@H](c1ccccc1Cl)N2 (racemic) |  |
| > 40% | > 16000 nM | O[C@@H]1c2cn[nH]c2N[C@H](c2ccccc2)[C@H]1n1nnc2ccccc21 (racemic) |  |
| 61% | 2200 nM | Cc1n[nH]c2c1[C@@H](O)[C@H](n1nnc3ccccc31)[C@@H](c1ccc(F)cc1)N2 (racemic) |  |
|  | 140 nM | Cc1n[nH]c2c1[C@@H](O)[C@H](n1nnc3ccccc31)[C@@H](c1ccccc1Cl)N2 (racemic) [listing 2 of 2 here] |  |
| 150% | 1900 nM | Cc1n[nH]c2c1[C@@H](O)[C@H](n1nnc3ccccc31)[C@@H](C1CCCC1)N2 (racemic) |  |
| 170% | 230 nM | Cc1n[nH]c2c1[C@@H](O)[C@H](n1nnc3ccccc31)[C@@H](C1CCCCCC1)N2 (racemic) |  |
| inactive |  | O[C@@H]1c2ccccc2N[C@H](c2ccccc2)[C@H]1n1nnc2ccccc21 (racemic) | EC50 ([3]; fibroblast): Not Active |
| 137% | 1200 nM | Cc1n[nH]c2c1[C@@H](O)[C@H](n1nnc3ccccc31)[C@@H](c1cccc(F)c1)N2 (racemic) |  |
| 160% | 470 nM | Cc1n[nH]c2c1[C@@H](O)[C@H](n1nnc3ccccc31)[C@@H](c1ccccc1C(F)(F)F)N2 (racemic) | IC50 ([4]; read-out: IC50): 1100 nM; Emax [2]: 103% |
